Source: patent publication USRE47193E1, “Selectively substituted quinoline compounds” (EISAI R&D MANAGEMENT CO., LTD., priority 2013, dated 2019)
Entries after “also recorded” stand apart in the source; their conditions may differ.

How the values were obtained:
[1] = tested on: Pristane DBA/1 lupus disease model; test: Pristane: DBA/1 lupus disease model; format: in vivo, mouse; settings: for auto-antibody specificities (titers): Pristane model, particularly robust impact on anti-RiboP titers
Description: (§1) FIG. 3A through FIG. 3E show results of testing compound ER-899742 in the Pristane: DBA/1 strain lupus disease model. Figure Legend: Female DBA/1 mice at 9 weeks of age were given an intraperitoneal injection of 0.5 ml pristane or PBS. At 9 weeks post-pristane animals were bled for auto-antibody titers. Once-a-day oral dosing with Vehicle (Veh; 0.5% methyl-cellulose) or 33 mg/kg, 100 mg/kg, or 300 mg/kg of ER-899742 was begun 10 weeks after pristane injection and continued for 13 weeks of treatment. Mice were euthanized after 13 weeks of compound treatment, and anti-dsDNA (FIG. 3A), anti-Sm/nRNP (FIG. 3B), anti-histone (FIG. 3C) and anti-RiboP (FIG. 3D) titers were measured in blood plasma samples by ELISA (statistical significance of treatment versus vehicle determined by ANOVA with Dunnett's post-test). (FIG. 3E) The expression of IFN-regulated genes in whole blood was measured by a qPCR panel after 13 weeks of treatment with 300 mg/kg of ER-899742, and an IFN gene signature score was calculated (see Pharmacology Materials and Methods section for details regarding IFN score calculation).
FIG. 5A through FIG. 5D show results of testing ER-899464 in the Pristane disease model in the same experiment as that shown in FIG. 3A through FIG. 3E. Figure Legend: Mice were euthanized after 13 weeks of compound treatment, and anti-dsDNA (FIG. 5A), anti-Sm/nRNP (FIG. 5B), anti-histone (FIG. 5C), and anti-RiboP (FIG. 5D) titers were measured in blood plasma samples by ELISA (statistical significance of treatment versus vehicle determined by ANOVA with Dunnett's post-test).
(§2) FIG. 7A through FIG. 7G show the effect of dosing with ER-899742 in Pristane-induced disease in DBA/1J mice. Figure Legend: Female DBA/1 mice at 9 weeks of age were given an intraperitoneal injection of 0.5 ml pristane or PBS. At 10 weeks post-pristane animals were bled for autoantibody titers. Once-a-day oral dosing with Vehicle (Veh; 0.5% methyl-cellulose) or 33 mg/kg, or 300 mg/kg of ER-899742 was begun 11 weeks after pristane injection and continued for 14 weeks of treatment. Mice were euthanized after 14 weeks of compound treatment, and anti-dsDNA (FIG. 7A), anti-RiboP (FIG. 7B), anti-Sm/nRNP (FIG. 7C), and anti-histone (FIG. 7D) titers were measured in blood plasma samples by ELISA (statistical significance of treatment versus vehicle determined by ANOVA with Dunnett's post-test). The same plasma was used to measure total IgG titers by ELISA at the end of dosing (FIG. 7E). […] Pristane-treated mice in this experiment developed arthritis, with swollen joints in the rear paws. Arthritis scores were assigned according to severity, each paw was scored on a scale of 0-4 based on signs of swelling and inflammation. Scores were summed for the two hind paws assessed on each animal, and graphed in FIG. 7F with statistical assessment as for ELISA titers above.
FIG. 8 contains the result of treating for a month with ER-899742 in Pristane-induced disease in DBA/1J mice with advanced disease, after development of high levels of autoantibody. Figure Legend: DBA/1J mice were injected i.p. with pristane at 10 weeks of age. Three months later anti-RiboP and anti-dsDNA titers were taken, and animals randomized into groups with matching mean titers. Groups were sacrificed after one, two or four weeks of oral dosing with ER-899742, and RiboP titers measured in serum.
Mouse Lupus Disease Models.
Mouse lupus disease model strains. Female NZBWF1/J mice were purchased from Jackson Labs (Bar Harbor, Me.), both of which manifest with spontaneous lupus disease. Female DBA/1 mice were purchased from Harlan Laboratories (Indianapolis, Ind.) and at the indicated ages given an intraperitoneal injection of 0.5 ml pristane (2,6,10,14-Tetramethylpentadecane; Sigma, St. Louis, Mo.) to chemically induce lupus disease or of 0.5 ml PBS to generate age-matched, non-diseased control mice.
Assessment of auto-antibody titers by ELISA. […]

[2] = tested on: IFN-regulated genes; test: Interferon gene expression in whole blood (qPCR TLDA panel, IFN score), Pristane model; format: in vivo, mouse; settings: for disease up-regulated IFN-regulated genes reduced by treatment vs. vehicle: 13 weeks of treatment, Student's t-test
Description: as §1, §2
Assessment of interferon gene expression in whole blood. The expression of IFN-regulated genes in whole blood was measured by qPCR. Briefly, mice were euthanized, blood was collected via the vena cava, and 100 ul was preserved in tubes containing RNAlater (Ambion, Austin Tex.). Total RNA was isolated using the Mouse RiboPure Blood RNA Isolation Kit (Ambion). RNA concentrations were determined using a NanoDrop ND-1000 spectrophotometer (Thermo Scientific, Waltham Mass.). First strand cDNA was synthesized from 100 ng total RNA using SuperScript® VILO™ Master Mix (Life Technologies, Grand Island, N.Y.). After reverse transcription, cDNA was diluted with nuclease-free water and mixed with TaqMan® Fast Advanced Master Mix (Applied Biosystems). The mixture was then applied to a custom TaqMan® Low Density Array (TLDA) manufactured by Applied Biosystems, and qPCR was performed on the ABI 7900HT Fast Real-time PCR System (Applied Biosystems). Raw data was collected using RQ Manager 1.2.1 (Applied Biosystems) and analyzed using GeneData Analyst 2.2 software (GeneData).
The TLDA panel contained as many as 45 target genes chosen from Table 9 below, and 3 housekeeping genes for normalization. The housekeeping gene Hprt1 was chosen for normalization based on coefficient-of-variation. Relative quantities were determined for the target genes and used to calculate a fold change for each diseased mouse relative to the non-diseased control group receiving intraperitoneal PBS injection only. […]

[3] = 33 or 300 mg/kg QD oral, 14 weeks of treatment

C[C@@H]1CN(c2ccc(C#N)c3ncccc23)C[C@H](C(=O)NC2CCN(C)CC2)O1 [ER-899464, (2R,6R)-4-(8-cyanoquinolin-5-yl)-6-methyl-N-(1-methylpiperidin-4-yl)morpholine-2-carboxamide]
auto-antibody specificities (titers) [1]: suppressed various auto-antibody specificities | disease up-regulated IFN-regulated genes reduced by treatment vs. vehicle [2]: none of the disease up-regulated genes shown in FIG. 3B were affected

C[C@@H]1CN(c2ccc(C#N)c3ncccc23)C[C@H](C(=O)N[C@H]2CNC[C@H]2F)O1.Cl [ER-899742, (2R,6R)-4-(8-cyanoquinolin-5-yl)-N-[(3S,4R)-4-fluoropyrrolidin-3-yl]-6-methylmorpholine-2-carboxamide hydrochloride]
autoantibody against dsDNA and RiboP [1, 3]: Control of autoantibody against dsDNA and RiboP was seen | total IgG titers [1, 3]: minimal changes in overall IgG level | auto-antibody specificities (titers) [1]: suppressed various auto-antibody specificities | arthritis scores (hind paws) ([1]; Pristane-treated DBA/1 mice, 33 or 300 mg/kg, 14 weeks, hydrochloride): Dose-dependent statistically significant suppression was observed; also recorded: Control of arthritis | reversal of anti-RiboP or DNA titers ([1]; advanced disease, after 28 days of oral dosing): no statistically significant reversal | interferon score, treated vs vehicle-treated ([2]; 13 weeks of treatment with 300 mg/kg): no significant difference | disease up-regulated IFN-regulated genes reduced by treatment vs. vehicle [2]: six genes were significantly reduced | interferon score, treated vs vehicle-treated ([2]; 14 weeks of treatment experiment (FIG. 7)): no significant difference | disease-related interferon-modulated genes downregulated ([2]; 14 weeks of treatment experiment (FIG. 7G)): downregulation of five out of 28 disease-related interferon-modulated genes | expression of IFN-modulated genes in whole blood ([2]; Pristane model, summary of key findings): Decreased expression of some IFN-modulated genes
